Tests used:
DYT1 patient plasma = assay: Whole plasma metabolomics (Biocrates MxP Quant 500 Kit), DYT1 vs Healthy Controls; settings: DYT1-Dystonia vs Healthy Control
Description: Duke Proteomics and Metabolomics Core Facility (DPMCF) also analyzed metabolites from 41 plasma samples using the Biocrates MxP Quant 500 Kit. Plasma from 14 subjects with DYT1 and 27 Healthy Controls was utilized.

[1] = tested on: DYT1 patient plasma derived EVs; assay: Plasma-derived EV proteomics (ExoQuick ULTRA, DIA LC/MS/MS), DYT1 vs Healthy Controls; design: species or system human; settings: Hs. Plasma EVs (DYT1/WT); significance of genotype difference
Description: Data was obtained for extracellular vesicles using previously acquired samples. The ExoQuick® ULTRA EV Isolation System was used to fractionate and enrich EVs from plasma. Isolated plasma EV samples were then submitted to proteomic analysis by the Duke Proteomics and Metabolomics Core Facility (DPMCF). At the DPMCF, quantitative (LC/MS/MS) was performed on 500 ng of each sample, using an EvoSep One UPLC system coupled to a Thermo Orbitrap Astral high-resolution accurate mass tandem mass spectrometer (Thermo). Briefly, the sample was eluted directly from an Evotip which was subjected to a low organic wash and then subjected to an analytical separation using a 1.7 μm EvoSep 150 um ID×15 cm endurance (EveoSep) column running an SPD30 gradient from approximately 5 to 30% acetonitrile with 0.1% formic acid with a column temperature of 50 C. Data collection on the Orbitrap Astral mass spectrometer was performed in a data-independent acquisition (DIA) mode of acquisition with a r=240,000 (@m/z 200) full MS scan from m/z 380-980 with a target AGC value of 4e5 ions. Fixed DIA, windows of 4 m/z from m/z 380 to 980 DIA MS/MS scans were acquired in the Astral with a target AGC value of 5e4 and a max fill time of 6 ms. HCD collision energy setting of 27% was used for all MS2 scans.

WT MEF EVs = assay: Quantitative LC-MS/MS proteomics of EVs from ISRIB-treated WT MEF cultures; assay type: cell-based, mouse; design: key to ISRIB and DYT Parallel Direction / ISRIB and DYT Parallel Direction, Ctdsp1 / ISRIB and DYT Parallel Direction, Pcdh19 / ISRIB and DYT Parallel Direction, Tspan7 / ISRIB and DYT Parallel Direction, Myo1e / ISRIB and DYT Parallel Direction, Plpp3 / ISRIB and DYT Parallel Direction, Sh3bp4 / ISRIB and DYT Parallel Direction, Dnajc7 / ISRIB and DYT Parallel Direction, Drg1 / ISRIB and DYT Parallel Direction, Maea: YES = protein abundance effect similar to DYT/WT; settings: EV protein abundance; for WT + ISRIB/WT Cohen's d: ISRIB-treated WT vs WT; for ISRIB and DYT Parallel Direction: WT + ISRIB vs WT, direction compared with DYT/WT
DYT-TOR1A MEF EVs = assay: Quantitative LC-MS/MS proteomics of EVs from drug-treated DYT-TOR1A MEF cultures (ritonavir, salubrinal); assay type: cell-based, mouse; design: key to RTV Corrective Direction / RTV Corrective Direction, Grwd1 / RTV Corrective Direction, Srrm2 / RTV Corrective Direction, Rbm17 / RTV Corrective Direction, Dcaf8 / RTV Corrective Direction, Edil3 / RTV Corrective Direction, Timp3 / RTV Corrective Direction, Heatr3 / RTV Corrective Direction, Brd4 / RTV Corrective Direction, P3h4 / RTV Corrective Direction, Pacsin3 / RTV Corrective Direction, Naa50 / RTV Corrective Direction, Lpar6 / RTV Corrective Direction, Ndrg1 / RTV Corrective Direction, Kntc1 / RTV Corrective Direction, Cdk11b / RTV Corrective Direction, Sumo1 / RTV Corrective Direction, Lsm4 / RTV Corrective Direction, Hmga2 / RTV Corrective Direction, Cstf1 / RTV Corrective Direction, Tes / RTV Corrective Direction, Sbno1 / RTV Corrective Direction, Unc119b / RTV Corrective Direction, Cfdp1 / RTV Corrective Direction, Sec61b: YES = protein abundance effect opposite to DYT/WT; settings: EV protein abundance; for RTV Corrective Direction: DYT + RTV (ritonavir) vs DYT, direction compared with DYT/WT; for DYT + RTV/DYT Cohen's d: ritonavir (RTV)-treated DYT vs DYT

Row | Compound | -LogP (DYT1 patient plasma) | -LogP [1] | WT + ISRIB/WT Cohen's d (WT MEF EVs) | ISRIB and DYT Parallel Direction (WT MEF EVs) | RTV Corrective Direction (DYT-TOR1A MEF EVs) | DYT + RTV/DYT Cohen's d (DYT-TOR1A MEF EVs)
1 | NCCCCC(=O)O [5-AVA_Aminoacids Related] | 2.862 | – | – | – | – | –
2 | N[C@@H](CC(=O)O)C(=O)O [Asp_Aminoacids] | 1.99 | – | – | – | – | –
3 | N[C@@H](CSSC[C@H](N)C(=O)O)C(=O)O [Cystine_Aminoacids Related] | 2.546 | – | – | – | – | –
4 | CCCCCCCCCCCCCCCCCCCCCCCCCC(=O)OC[C@@H](O)COP(=O)([O-])OCC[N+](C)(C)C [lysoPC a C26:0_Glycerophospholipids] | 2.027 | – | – | – | – | –
5 | CCCCCCCCCCCCCCCCCCCCCCCCCCCC(=O)OC[C@@H](O)COP(=O)([O-])OCC[N+](C)(C)C [lysoPC a C28:0_Glycerophospholipids] | 1.585 | – | – | – | – | –
6 | Cc1ccc(OS(=O)(=O)O)cc1 [p-Cresol-SO4_Cresols] | 1.433 | – | – | – | – | –
7 | CRYAB | – | 1.577 | – | – | – | –
8 | DLST | – | 1.928 | – | – | – | –
9 | FLNA | – | 1.743 | – | – | – | –
10 | Gmppb | – | – | −2.41 | YES | YES | 5.38
11 | Hdgf | – | – | 1.97 | YES | YES | −0.15
12 | Hmcn1 | – | – | −2.25 | – | YES | −3.58
13 | Huwe1 | – | – | −3.93 | YES | YES | 5.04
14 | Idh2 | – | – | −2.01 | YES | YES | 23.61
15 | Ilf2 | – | – | −1.37 | YES | YES | 2.47
16 | Itpa | – | – | −1.25 | YES | YES | 12.80
17 | Ltbp1 | – | – | 2.17 | YES | YES | −3.08
18 | Ltbp2 | – | – | 0.70 | YES | YES | −5.72
19 | MAPK3 | – | 1.682 | – | – | – | –
20 | MYH9 | – | 1.313 | – | – | – | –
21 | Myo18a | – | – | 2.27 | – | YES | 4.91
22 | Nes | – | – | 2.29 | YES | – | 0.37
23 | Notch3 | – | – | 0.52 | YES | YES | −2.22
24 | Nrbp1 | – | – | 0.18 | – | YES | 6.35

Row | Compound | -LogP (DYT1 patient plasma) | -LogP [1] | WT + ISRIB/WT Cohen's d (WT MEF EVs) | ISRIB and DYT Parallel Direction (WT MEF EVs) | RTV Corrective Direction (DYT-TOR1A MEF EVs) | DYT + RTV/DYT Cohen's d (DYT-TOR1A MEF EVs)
25 | Otub1 | – | – | −2.26 | YES | YES | 5.84
26 | Oxsr1 | – | – | −0.72 | YES | YES | 5.88
27 | PCMT1 | – | 1.506 | – | – | – | –
28 | PI4KA | – | 2.66 | – | – | – | –
29 | PSMC5 | – | 1.615 | – | – | – | –
30 | PSME4 | – | 1.398 | – | – | – | –
31 | Pgp | – | – | −0.86 | YES | YES | 2.28
32 | Prpf8 | – | – | −0.01 | YES | YES | 7.95
33 | Ptprs | – | – | 0.13 | YES | YES | −5.40
34 | RHOA | – | 1.674 | – | – | – | –
35 | Rab1b | – | – | −2.54 | YES | YES | 1.15
36 | Sar1a | – | – | −1.23 | YES | YES | 4.40
37 | Spp1 | – | – | 2.67 | YES | YES | −6.93
38 | Sptan1 | – | – | −0.40 | YES | YES | 3.22
39 | Sptbn1 | – | – | −0.82 | YES | YES | 3.27
40 | Svep1 | – | – | −0.50 | – | YES | −0.40
41 | TARDBP | – | 1.352 | – | – | – | –
42 | TGFB2 | – | 2.018 | – | – | – | –
43 | TLN1 | – | 1.51 | – | – | – | –
44 | TLN2 | – | 1.45 | – | – | – | –
45 | Tardbp | – | – | 0.28 | YES | YES | 0.80
46 | Usp7 | – | – | −1.90 | YES | YES | 6.89
47 | lgf1r | – | – | 0.75 | – | YES | 0.63
